According to US9493500B2, “Fluorinated pyrimidine analogs and methods of use thereof” (priority 2012, dated 2016):
Read-outs that look alike come from different tables or passages of the source.

What was measured:
[1] = system: myelodysplatic syndrome (MDS); conditions: treated patients with MDS; cited from earlier work
[2] = system: various tumor cells lines, both solid and hematologic; conditions: available data; cited from earlier work
[3] = following subcutaneous administration; cited from earlier work
[4] = target: cytidine deaminase (Homo sapiens, UniProt P32320); conditions: deamination of the base to inactive uracil; cited from earlier work
Chain of cytidine deaminase (P32320 whole entry, species assumed): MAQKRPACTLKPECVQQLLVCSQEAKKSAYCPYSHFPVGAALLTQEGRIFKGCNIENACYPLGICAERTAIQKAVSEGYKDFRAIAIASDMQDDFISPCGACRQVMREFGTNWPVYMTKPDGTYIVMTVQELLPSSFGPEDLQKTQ

[5] = system: DNA methyltransferase (DNMT); test: In vitro DNA methyltransferase inhibition in HCT-116 cells (EpiQuick kit); format: cell-based
Procedure: The assay was performed using the EpiQuick DNA Methyltransferase Activity/Inhibition Assay Kit (Epigentek, Brooklyn, N.Y.). The […] cells were incubated with 1 μM and 10 μM concentrations of each drug for a period of 24 hours.

[6] = system: various tumor cells lines, both solid and hematologic; test: Cytotoxicity against various tumor cell lines (overall comparison); format: cell-based
[7] = system: HCT-116; test: In vitro cytotoxicity (GI50), colon/colorectal cell line; format: cell-based
Procedure: (§1) The in vitro cytotoxicity was measured in the following cell lines: NCI-H460 (ATCC #HTB-177) (non-small cell lung), HCT-116 (ATCC #CCL-247) (colorectal), HL-60 (ATCC #CCL-240) (leukemia), and MDA-MB-231 (ATCC #HTB-26) (breast).

[8] = system: NCI-H460; test: In vitro cytotoxicity (GI50), non-small cell lung cell line; format: cell-based
Procedure: as §1

[9] = system: L1210; test: In vitro cytotoxicity, leukemia cell line L1210; conditions: read-out: In vitro cytotoxicity, Leukemia L1210; Table 3
[10] = system: MDA-MB-231; test: In vitro cytotoxicity (GI50), breast cancer cell line; format: cell-based
Procedure: as §1

[11] = system: L1210

In the case of `Nc1ncn([C@@H]2O[C@H](CO)[C@@H](O)[C@H]2O)c(=O)n1` [Azacytidine, 5-azacytidine], the “Remissions or clinical improvements” value [1] is given as “remissions or clinical improvements in more than half of the treated patients”.

For `NC1=NC(=O)N([C@H]2C[C@H](O)[C@@H](CO)O2)CN1` [DHADC, 5,6-dihydro-5-aza-2′-deoxycytidine], the “Cytotoxicity compared to decitabine” value [2] is listed as “lesser cytotoxicity”.

For `Nc1ncn([C@H]2C[C@H](O)[C@@H](CO)O2)c(=O)n1` [Decitabine, 5-azadeoxycytidine], the Half-life [3] is given as 30 min, the “Remissions or clinical improvements” value [1] is given as “remissions or clinical improvements in more than half of the treated patients” and the “Substrate for cytidine deaminase” value [4] is given as “good substrates for cytidine deaminase”.

In the case of `Nc1ncn([C@@H]2O[C@H](CO)[C@@H](O)C2(F)F)c(=O)n1` [NUC013, 2′,2′-difluoro-5-azadeoxycytidine], the “DNA methyltransferase inhibition (conclusion in words)” value [5] is reported as “is an inhibitor of DNA methyltransferase” and the “Cytotoxicity profile (in words)” value [6] is reported as “active against cell lines that are resistant to decitabine”.

For `NC1=NC(=O)N([C@@H]2O[C@H](CO)[C@@H](O)C2(F)F)CN1` [NUC014, 2′,2′-difluoro-5,6-dihydro-5-azadeoxycytidine], the “Cytotoxicity profile (in words)” value [6] was “less cytotoxic than NUC013”.

`O=c1ncccn1[C@@H]1O[C@H](CO)[C@@H](O)C1(F)F` [NUC019, 2′-deoxy-2′,2′-difluorozebularine] showed an IC50 ([7]; Table 3, read-out: In vitro cytotoxicity, Colon HCT-116) of 310 µM, an IC50 ([8]; Table 3, read-out: In vitro cytotoxicity, NSCL NCI-H460) of 136 µM and an IC50 [9] of 321 µM. The IC50 ([10]; Table 3, read-out: In vitro cytotoxicity, Breast MDA-MB-231) was 166 µM.

`O=c1ncccn1[C@H]1O[C@H](CO)[C@@H](O)C1(F)F` [NUC020] showed an IC50 [7] of 279 µM, an IC50 [11] of 346 µM and an IC50 [8] of 136 µM. The IC50 [10] was 213 µM.
